Test results taken from ChEMBL document CHEMBL1148063, “(+/-)-Gelliusines A and B, two diastereomeric brominated tris-indole alkaloids from a deep water new caledonian marine sponge (Gellius or Orina sp.)” (J Nat Prod, 1994).
Converted amounts (≈) assume the structure as drawn. The source made the active and inactive calls. The calls are words filed in the database; no cut-off is given here.

Assays:
Ileum [1] = assay: Inhibition of acetylcholine-induced contraction in guinea pig ileum at 0.2 ug/ml; format: functional, tissue-based; details: Cavia porcellus
Ileum [2] = assay: Inhibition of acetylcholine-induced contraction in guinea pig ileum at 0.5 ug/ml; format: functional, tissue-based; details: Cavia porcellus
Ileum [3] = assay: Inhibition of serotonin-induced contraction in guinea pig ileum at 4 ug/ml; format: functional, tissue-based; details: Cavia porcellus
KB = assay: Cytotoxicity against human KB cells; format: functional, cell-based
P388 [4] = assay: Cytotoxicity against mouse doxorubicin-resistant P388 cells; format: functional, cell-based
Cavia porcellus = organism: Cavia porcellus; assay: Antagonist activity at serotonin receptor in guinea pig ileum; format: functional, tissue-based
[5] = Cytotoxicity against human NSCLC-N6 cells; format: functional, cell-based
P388 [6] = assay: Cytotoxicity against mouse P388 cells; format: functional, cell-based
HT-29 = assay: Cytotoxicity against human HT-29 cells; format: functional, cell-based

In the case of `CC(C)NCC(O)COc1cccc2ccccc12` (centres undefined), the Activity (Ileum [1]) is reported as “inactive”.
In the case of `CC(COc1ccccc1)N(CCCl)Cc1ccccc1` (centres undefined), the Activity (Ileum [2]) is reported as “inactive”.
For `NCCc1c(C(CN)c2c[nH]c3cc(Br)ccc23)[nH]c2cc(C(CN)c3c[nH]c4cc(Br)ccc34)c(O)cc12` (racemic) [GELLIUSINE A], the Activity (Ileum [3]) was “Active”, the IC50 (KB) was 10 µg/mL (≈ 15.4 µM) and the IC50 (P388 [4]) was 10 µg/mL (≈ 15.4 µM). For the same compound, the Activity (Cavia porcellus) was “Active”, the IC50 [5] was 10 µg/mL (≈ 15.4 µM) and the IC50 (P388 [6]) was 10 µg/mL (≈ 15.4 µM). It also gave an IC50 (HT-29) of 10 µg/mL (≈ 15.4 µM).
